Read-outs that look alike come from different tables or passages of the source.
Columns and labels:
[1] = Measurement of unbound dye in plasma of injected rats (dialysis); assay type: in vivo, male Wistar rats; details: rat; for Plasma unbound dye concentration: blood 2-4 min after injection
Experimental: (§1) Intra-ocular dye distribution: Young male Wistar rats (180-250 g) under pentobarital anesthesia (50 mg/kg i.p.) were injected intravenously with carboxyfluorescein or fluorescein solutions (pH 7.4) at doses of 12.5, 62.5 and 125 mg/kg. One minute after dye injection, the eyes were removed and immediately frozen in isopentane cooled to -110° C. by a liquid nitrogen bath. Between 2 and 4 minutes after injection a blood sample from the abdominal aorta was drawn into a heparinized syringe for determination of the concentration of unbound dye in plasma. The frozen eyes were dried under vacuum at -35° C. and embedded in paraffin. After embedding the eyes were stored under vacuum at -20° C. to minimize the development of autofluorescence. Additional eyes from normal rats not injected with dye were processed and stored identically for measurement of tissue autofluorescence. Immediately prior to examination with the fluorescence microscope, sections were cut at a thickness of 12 microns, placed on glass slides, and mounted with xylene.
(§2) Measurement of unbound dye in plasma: Plasma was separated by centrifugation from the heparinized blood obtained from rats injected with sodium fluorescein or carboxyfluorescein in the intraocular dye distribution study. The plasma was dialyzed for 24 hours at 37° C. against 0.1 M phosphate buffer at pH 7.4 using cellulose dialysis tubing with a 3500 molecular weight cut-off. Dye concentration was measured in the dialysate spectrofluorophotometrically and from this value calculated the unbound plasma dye concentration.

[2] = test system: blood-ocular barriers (choroid and retina); assay type: in vivo, male Wistar rats; details: rat, iv
Text: To determine whether a less membrane permeable dye than fluorescein has value as a probe of the structural and functional integrity of the blood-ocular barriers we have undertaken studies of carboxyfluorescein, a compound with the same fluorescence characteristics as fluorescein, but with lower lipid solubility at physiological pH (7). In particular, the lipid solubility of carboxyfluorescein was compared with fluorescein by measuring dye partitioning between octanol and aqueous buffer at different pH to determine solubility behavior relevant to the permeability of cell membranes in vivo. Studies were then made of the ocular distribution carboxyfluorescein in rats after intravenous injection using quantitative fluorescence microscopy; and compared to the results for fluorescein. The plasma binding of carboxyfluorescein was also studied and compared to fluorescein.
as §1
Fluorescence intensity in small areas of the tissue sections was measured with a 450 u fiber optic probe placed in the object plane of an ocular and connected to a photomultiplier tube. An amplified signal from the photomultiplier was recorded with a digital voltmeter. The illumination system consisted of a 50 W high pressure mercury light source and an epifluorescence condensor equipped with a 455-490 nm exciter filter, a 510 nm dichroic beam splitter, and a 520 nm barrier filter. All measurements were performed using a 63X oil objective (N.A. 1.4). With this magnification, an aperture in the object plane restricted the area of illumination to a circle, 24 microns in diameter. The fiber optic probe covered a specimen field, 6 microns in diameter, centered in the larger illuminated field.
Fluorescence intensity of four tissue layers was recorded in the posterior segment: the inner plexiform, outer nuclear, and photoreceptor outer segment layers of the retina, and the choriocapillaris. Each of these layers is of sufficient width so that the illuminated area encompassed a homogeneous field. Foci of intense fluorescence, such as dye filled retinal capillaries, within the illumination field but outside the detection area of the fiber optic probe, can increase the recorded signal by light scatter into the detection area. Fields containing such bright foci were avoided. Examination of the section, location of the area for measurement, and focusing of the image was accomplished under dim green illumination from a tungsten lamp. The illumination was then switched to the fluorescence system, and the maximum value of fluorescence intensity was recorded as voltage. Measurements were made at 12 sites in each layer to obtain the average fluorescence intensities for an individual eye. These values were then corrected for tissue autofluorescence by subtracting the average fluorescence intensity of each layer in eyes from animals not injected with dye. […]

[3] = test system: active transport system in the anterior uvea; details: outward, from eye to blood; cited from earlier work
[4] = test system: cornea; details: topical; cited from earlier work
[5] = cited from earlier work
[6] = cited from earlier work; remark: listed apart in the source
[7] = physchem; details: for logD at 10 µM / logD at 1000 µM / Partition ratio octanol/buffer: octanol/0.1 m phosphate buffer
Experimental: Octanol/buffer partition ratios: The ratio of concentrations of a given solute in equilibrium distribution between two immiscible solvents is termed the partition coefficient. This expression properly refers only to the distribution of a single molecular species between the two phases. […] Total dye concentration in the two solvent phases was measured without correction for ionization or self-association and the recommended term, "partition ratio", is used to refer to these uncorrected distributions.
Carboxyfluorescein (Eastman Kodak Co., Rochester) or sodium fluorescein (Sigma Chemical Co., St. Louis) was dissolved at concentrations of 10^-3 M or 10^-5 M in octanol-saturated 0.1 M phosphate buffer at different pH values between 6.40 and 8.03. The aqueous dye solutions were equilibrated with equal volumes of buffer-saturated octanol by 100 inversions during 5 minutes, and the phases were separated by centrifugation. Dye concentrations were measured spectrofluorophotometrically at excitation and emmision wavelengths of 487 and 512 nm, respectively, with an Aminco-Bowman Ratio Spectrofluorophotometer.
Two methods were used to calculate partition ratios. In the first, the dye concentration in the aqueous phase was measured before (Cb) and after (Ca) partitioning, and the ratio was obtained from the equation:
P.R.=Coct/Caq=(Cb -Ca)/Ca,
where Coct and Caq are the dye concentration in the octanol and aqueous phases respectively after equilibration. In the second method, concentration in the octanol phase was determined by extracting the dye from octanol with an equal volume 0.1 N NaOH. […] Therefore, dye concentration in the first base extract was accepted as the concentration in the octanol phase and calculated the partition ratio from the equation: […]

[8] = Dialyzable (unbound) fraction of dye in human plasma; assay type: in vitro ADME; details: human plasma, 37° C., read-out: Dialyzable fraction (mean ± S.E.M.)
Experimental: as §2
(§3) To study the fraction of unbound dye in human plasma, there was added small aliquots of carboxyfluorescein and sodium fluorescein solutions to plasma separated from heparinized human blood so that the final dye concentration in the plasma was between 10^-3 M and 10^-6 M. The plasma/dye mixture was incubated for 2 hours at 37° C. Then using the dialysis and measuring procedures described above, the ratio of unbound dye to total dye in the plasma mixture was calculated.

[9] = test system: rabbit eyes
Experimental: Carboxyfluorescein was prepared as a 1% solution in water, buffered to pH 7.4. Carboxyfluorescein was made into strip form, using strips of #1 filter paper, impregnated with carboxyfluorescein and allowed to dry. The carboxyfluorescein was applied to rabbit eyes both with the paper impregnated strip and also as a 1% topical drop.

[10] = test system: human plasma proteins; assay: Dialyzable (unbound) fraction of dye in human plasma; assay type: in vitro ADME; details: for Dialyzable fraction (mean ± S.E.M.): human, plasma
Experimental: as §2, §3

## O=C1OC2(c3ccc(O)cc3Oc3cc(O)ccc32)c2ccccc21 [fluorescein]
[1]; i.v. 12.5 mg/kg
  Plasma unbound dye concentration: .04 ± .03 mg/mL
[1]; i.v. 62.5 mg/kg
  Plasma unbound dye concentration: .18 ± .01 mg/mL
[1]; i.v. 125 mg/kg
  Plasma unbound dye concentration: .29 ± .01 mg/mL
[2]; in vivo
  Fluorescence of iris epithelium: brightly stains the cells of the ciliary and iris epithelium
  Outer segment layer values relative to deeper retinal layers: twice as high
[2]; in vivo, 12.5 mg/kg
  Tissue relative fluorescence intensity, IPL (mean ± S.E.M.): .021
  Tissue relative fluorescence intensity, ONL (mean ± S.E.M.): .011 ± .001
  Tissue relative fluorescence intensity, choroid (mean ± S.E.M.): .57 ± .03
  Tissue relative fluorescence intensity, outer segments (mean ± S.E.M.): .032 ± .003
[2]; in vivo, 62.5 mg/kg
  Tissue relative fluorescence intensity, IPL (mean ± S.E.M.): .086
  Tissue relative fluorescence intensity, ONL (mean ± S.E.M.): .076 ± .004
  Tissue relative fluorescence intensity, choroid (mean ± S.E.M.): 2.7 ± .2
  Tissue relative fluorescence intensity, outer segments (mean ± S.E.M.): .153 ± .008
[2]; in vivo, 125 mg/kg
  Tissue relative fluorescence intensity, IPL (mean ± S.E.M.): .150
  Tissue relative fluorescence intensity, ONL (mean ± S.E.M.): .196 ± .011
  Tissue relative fluorescence intensity, choroid (mean ± S.E.M.): 5.7 ± .5
  Tissue relative fluorescence intensity, outer segments (mean ± S.E.M.): .452 ± .021
[2]; in vivo, 1 min
  Outer segment layer values relative to choroid: 6-8%
[3]
  Substrate for active transport: serves as a substrate for an active transport system in the anterior uvea
[4]
  Corneal penetration and artificial aqueous flare: its ready penetration through the cornea into the aqueous humor creates an artificial aqueous flare
[5]; dianion/monoanion
  pKa, divalent/monovalent anion: 6.7
[5]; second listed pKa
  pKa, monoanion/neutral molecule: 4.4
[5]; third listed pKa
  pKa, neutral molecule/cation: 2.2
[6]
  Partition coefficient octanol/artificial sea water: 0.6
[7]; pH 6.42
  logD at 10 µM: 1.58
  logD at 1000 µM: 1.54
[7]; pH 6.87
  logD at 10 µM: 0.69
  logD at 1000 µM: 0.708
[7]; pH 7.38
  logD at 10 µM: -0.194
  logD at 1000 µM: -0.292
[7]; pH 8.03
  logD at 10 µM: -1.52
  logD at 1000 µM: -1.42
[7]; octanol/buffer
  pH at which partition ratio reaches 1.0: 7.25
[8]; 10^-3 M
  fraction unbound at 1000 µM: 0.3 ± 0.02
[8]; 10^-4 M
  fraction unbound at 100 µM: 0.33 ± 0.03
[8]; 10^-5 M
  fraction unbound at 10 µM: 0.33 ± 0.01
[8]; 10^-6 M
  fraction unbound at 1 µM: 0.32 ± 0.02

## carboxyfluorescein
[1]; in vivo, iv
  Plasma unbound dye concentration compared with fluorescein: significantly higher than in animals injected with fluorescein
[2]; in vivo
  Fluorescence of iris stroma: the intensity of fluorescence is less than that seen with fluorescein
[2]; in vivo, 62.5 mg/kg
  Tissue relative fluorescence intensity, IPL (mean ± S.E.M.): .001
  Tissue relative fluorescence intensity, ONL (mean ± S.E.M.): .002 ± .001
  Tissue relative fluorescence intensity, choroid (mean ± S.E.M.): 8.0 ± .4
  Tissue relative fluorescence intensity, outer segments (mean ± S.E.M.): .008 ± .001
[2]; in vivo, 125 mg/kg
  Tissue relative fluorescence intensity, IPL (mean ± S.E.M.): .002
  Tissue relative fluorescence intensity, ONL (mean ± S.E.M.): .003 ± .001
  Tissue relative fluorescence intensity, choroid (mean ± S.E.M.): 7.8 ± .8
  Tissue relative fluorescence intensity, outer segments (mean ± S.E.M.): .006 ± .003
[2]; not told
  Permeability of blood-ocular barriers to intravascular dye: markedly less permeable to intravascular carboxyfluorescein than to fluorescein
[9]; corneal abrasion, observation 30 to 45 minutes
  Persistence of stain: persisted but lessened in intensity
[9]; experimental corneal abrasion
  Staining of corneal epithelial defect: densely stained the corneal epithelial defect
[9]; in vivo
  Hyperemia or corneal changes: no apparent hyperemia or corneal changes
  Reaction / subjective discomfort: did not react in a negative fashion
[9]; topical, blue light
  Visibility in tear film: seen in the tear film
[7]; 10 µM, pH 6.42
  Partition ratio octanol/buffer: .037
[7]; 10 µM, pH 6.87
  Partition ratio octanol/buffer: .0030
[7]; 10 µM, pH 7.38
  Partition ratio octanol/buffer: .0007
[7]; 1000 µM, pH 6.42
  Partition ratio octanol/buffer: .033
[7]; 1000 µM, pH 6.87
  Partition ratio octanol/buffer: .0028
[7]; 1000 µM, pH 7.38
  Partition ratio octanol/buffer: .0008
[7]; 1000 µM, pH 8.03
  Partition ratio octanol/buffer: .00006
[7]; octanol/phosphate buffer, pH 6.4
  Partition ratio: below 0.1
[10]
  Binding to human plasma proteins compared with fluorescein: consistently less bound to human plasma proteins than fluorescein
[10]; 1 µM
  Dialyzable fraction (mean ± S.E.M.): .46 ± .01
[10]; 10 µM
  Dialyzable fraction (mean ± S.E.M.): .51 ± .03
[10]; 100 µM
  Dialyzable fraction (mean ± S.E.M.): .50 ± .01
[10]; 1000 µM
  Dialyzable fraction (mean ± S.E.M.): .61 ± .02

— patent US4350676A, “Ophthalmic use of carboxyfluorescein” (priority 1981, dated 1982)
